Results on 8 compounds are retold here after PubChem BioAssay (NCI).

“And” between values parts separate entries of the source, which are not always exact repeats. Identical values can stand only once.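 Cultured in 96-well plates, cells were exposed to test compound for 48 hours across five concentrations. The concentration for 50% growth inhibition is given as GI50. TGI: total growth inhibition.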 Where only a bound is given, the exact number is not on record here.

Some test systems named below: DMS 114 small cell lung; T-47D breast; KM20L2 colon; DLD-1 colon; HOP-18 NSCLC; DU-145 prostate; P388 leukemia; MDA-N; MDA-MB-435; SN12K1 renal; NCI/ADR-RES ovarian.
Holding throughout (assay): NCI tumour cell line growth inhibition, 48 h

For `C/C=C(\C)c1cc(=O)c2c(C)cc3c(c2o1)C(=O)c1c(O)c(C2CC(C)(N(C)C)C(O)C(C)O2)cc(C2CC(N(C)C)C(O)C(C)O2)c1C3=O` (stereo unspecified), the TGI is 4.45 µM with DMS 114 small cell lung; 3.12 µM in the assay on T-47D breast; 25 µM in the assay with KM20L2 colon; above 35.2 µM in the assay with DLD-1 colon; above 100 µM in the assay on HOP-18 NSCLC; 5.75 µM in the assay on DU-145 prostate. The TGI in the assay on P388 leukemia is 5.36 µM; in the assay on MDA-N, 0.46 µM; with MDA-MB-435, 0.866 µM; in the assay on SN12K1 renal, 2.52 µM.
Regarding `NC(C/[N+]([O-])=N/O)C(=O)O` (stereo unspecified), the TGI was 10.9 µM in the assay with DMS 114 small cell lung; above 500 µM with T-47D breast; above 434 µM with NCI/ADR-RES ovarian; above 500 µM in the assay with KM20L2 colon; above 500 µM in the assay on DLD-1 colon; above 472 µM in the assay on HOP-18 NSCLC. The TGI in the assay with DU-145 prostate is above 500 µM; in the assay on P388 leukemia, 337 µM; in the assay with MDA-N it was above 500 µM; in the assay on MDA-MB-435 it was above 500 µM; in the assay with SN12K1 renal it was 257 µM. In addition, the GI50 with T-47D breast was 198 µM; in the assay on DU-145 prostate, 173 µM; in the assay with MDA-MB-435, 11.7 µM and 17.9 µM and 10.6 µM.
In the case of `COC1C(O)C(C)OC(OC2C(Oc3cccc4c(O)c5c(=O)oc6ccc(C)c7c(=O)oc(c34)c5c67)OC(C)C3O[C@H](c4ccccc4)OC32)C1O` (stereo partly specified), the TGI in the assay on DMS 114 small cell lung was found to be 2.69 µM; in the assay with NCI/ADR-RES ovarian, 10.8 µM; with KM20L2 colon it was 2.98 µM; with DLD-1 colon, 8.67 µM; with HOP-18 NSCLC it was 13.6 µM; with DU-145 prostate, 3.19 µM. The TGI in the assay with MDA-N was found to be 10.4 µM; in the assay with MDA-MB-435 it was 7.22 µM. Besides, the GI50 is 0.483 µM in the assay with T-47D breast; 0.484 µM with DU-145 prostate; 0.327 µM in the assay on MDA-N; 0.309 µM and 0.436 µM with MDA-MB-435.
In the case of `CCOC(=O)c1cc(/C=C/C(C)=C/C(=O)OC)oc1-c1ccccc1`, the TGI with DMS 114 small cell lung, with KM20L2 colon, with DLD-1 colon and in the assay with HOP-18 NSCLC was above 100 µM throughout.
As for `O=C(CC(=O)c1ccc([N+](=O)[O-])cc1)C(=O)Nc1nccs1`, the TGI with DMS 114 small cell lung, in the assay with KM20L2 colon, in the assay on DLD-1 colon and in the assay with HOP-18 NSCLC was above 100 µM throughout.
With `Nc1ncnc2c1ncn2C1OC(CSC(F)(F)F)C(O)C1O` (stereo unspecified), the TGI with DMS 114 small cell lung, in the assay with KM20L2 colon, in the assay on DLD-1 colon and with HOP-18 NSCLC was above 100 µM each time.
For `C[C@@H](C1CCC2C3C(=CC(=O)[C@@]21C)[C@H](C)[C@]1(CCC(=O)O1)C1OC31)[C@H]1C[C@]2(C)O[C@@](C)(O1)OC2(C)C` (stereo partly specified), the TGI with DMS 114 small cell lung, in the assay on KM20L2 colon, with DLD-1 colon and in the assay on HOP-18 NSCLC was above 100 µM throughout.
In the case of `O=C1c2cccc3cc([N+](=O)[O-])cc(c23)C(=O)N1NC1=NCCN1`, the TGI with DMS 114 small cell lung, in the assay on KM20L2 colon, with DLD-1 colon and with HOP-18 NSCLC was above 100 µM each time.
